Results on 1 compound are retold here after patent US20040002479A1, “Peptide analogues and uses thereof” (priority 2002, published 2004).

This series in a line: Hydroxyapatite assay (hydroxyapatite adsorption chromatography, bone-targeting potential). The settings on record: corrected K=(retention time-void time)/void; TSK-Gel HA 1000 HPLC column; linear gradient 10 mM to 500 mM sodium phosphate, 0.15 N NaCl, pH 6.8. Type of series: physicochemical. As for the experimental part:
Hydroxyapatite is the principal mineral component of bone. Hydroxyapatite adsorption chromatography is used as an assay to evaluate the bone-targeting potential of both individual bone-targeting moieties (“monomers”) and of pharmaceuticals incorporating bone-targeting groups.
Method: The rentention time of a test compound is measured using a linear gradient from 10 mM sodium phosphate, 0.15 N NaCl, pH=6.8 to 500 mM sodium phosphate, 0.15 N NaCl, […] on a TSK-Gel HA 1000 high pressure liquid chromatography column (7.5 mm×75 mm). The rentention time of the compound is expressed in terms of K=(retention time-void time)/void. This K value is corrected using two reference compounds to correct from inter-column and inter-system variation to obtain a K′ value.
Reference Compounds: K′ values were determined for known bone targeted compounds, the bisphosphonate, alendronate and tetracycline.

For the compound `NCCCC(O)(P(=O)(O)O)P(=O)(O)O` [Alendronate, alendronate], the “K′ value” was found to be 3.7.
